The values that follow come from BindingDB's records for patent US10766864 (Nektar Therapeutics, 2020).

Structures are written as SMILES. A value given as a limit tells only on which side of the number the result lay.

The assay addresses Mu-type opioid receptor (Homo sapiens, UniProt P35372). The assay can be described thus: Receptor Binding Assay. On the procedure:
Affinities of various compounds were measured in vitro using competitive radioligand binding assays. Serial dilutions of test compounds were incubated with membranes prepared from CHO-K1 cells expressing the mu opioid receptor (MOR; for opioid receptor binding) or rat forebrain membranes (for NMDA receptor binding). 2 nM [3H] Naloxone (MOR) or 0.2 nM [3H] MK801 (NMDA) were used as the specific, competitive radioligands. 10 uM Naloxone (MOR), or 10 uM MK801 (NMDA) was used to determine non-specific binding. Bound radioactivity was measured using a scintillation counter & IC50 values for test compounds were determined by non-linear regression analysis using a one-site competition model (Graph Pad Prizm). Due to each test compound being solubilized in a buffered system for the assay, the results presented herein reflect the free base activity.

What is called IC50 is the concentration at which inhibition is half-maximal.

Chain of Mu-type opioid receptor (P35372 whole entry): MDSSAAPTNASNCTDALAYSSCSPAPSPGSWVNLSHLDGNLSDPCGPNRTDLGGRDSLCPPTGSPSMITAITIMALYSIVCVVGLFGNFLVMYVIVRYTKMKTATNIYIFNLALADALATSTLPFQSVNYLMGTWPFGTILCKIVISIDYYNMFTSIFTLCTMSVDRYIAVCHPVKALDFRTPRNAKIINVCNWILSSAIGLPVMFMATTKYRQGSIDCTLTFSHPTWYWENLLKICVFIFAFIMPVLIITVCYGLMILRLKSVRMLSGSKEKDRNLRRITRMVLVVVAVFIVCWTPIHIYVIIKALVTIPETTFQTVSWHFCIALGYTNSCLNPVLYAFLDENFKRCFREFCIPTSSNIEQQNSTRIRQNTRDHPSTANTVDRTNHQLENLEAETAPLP

As for `COCCOCCN1CC[C@]23CCCC[C@H]2[C@H]1Cc1cc2sc(N)nc2cc13` [US10766864, Example 97], the half-inhibitory concentration (IC50) was over 1000 nM.
